Assay results taken from ChEMBL document CHEMBL1158174, “The antioxidant activity of 2-(4(or 2)-hydroxyl-5-chloride-1,3-benzene-di-sulfanimide)-chitosan” (Eur J Med Chem, 2008).

Key:
[1] = Antioxidant activity assessed as superoxide radical scavenging activity at 0.40 mg/mL; format: functional
[2] = Antioxidant activity assessed as hydroxyl radical scavenging activity; format: functional

IC50 [2]: > 711 µg/mL
Compound: O=C1O[C@H]([C@@H](O)CO)C(O)=C1O [ASCORBIC ACID]
Activity [1]: 33.9%
